In patent US20250049939A1, “NOVEL FLT3 ANTIBODIES AND ANTIBODY-DRUG-CONJUGATES BASED THEREON, THERAPEUTIC METHODS AND USES THEREOF IN COMBINATION WITH TYROSINE KINASE INHIBITORS” (TUBULIS GmbH, priority 2021, published 2025):
Square brackets hold non-standard residues; d marks the D form. Peptide text beside a SMILES is read from it. Dolaproine = CO[C@@H]([C@@H]1CCCN1)[C@@H](C)C(=O)O; Dil = CC[C@H](C)[C@H](NC)[C@@H](CC(=O)O)OC; NMeV = CN[C@H](C(=O)O)C(C)C

Tests used:
[1] = biological target: T1, Ba/F3 cells expressing human wildtype FLT3 (Homo sapiens, UniProt P36888); test: Cytotoxicity in Ba/F3 hFLT3 wt, 72 h; settings: Ba/F3 cells expressing the empty vector or human wild type FLT3
T1 sequence (P36888 27-993): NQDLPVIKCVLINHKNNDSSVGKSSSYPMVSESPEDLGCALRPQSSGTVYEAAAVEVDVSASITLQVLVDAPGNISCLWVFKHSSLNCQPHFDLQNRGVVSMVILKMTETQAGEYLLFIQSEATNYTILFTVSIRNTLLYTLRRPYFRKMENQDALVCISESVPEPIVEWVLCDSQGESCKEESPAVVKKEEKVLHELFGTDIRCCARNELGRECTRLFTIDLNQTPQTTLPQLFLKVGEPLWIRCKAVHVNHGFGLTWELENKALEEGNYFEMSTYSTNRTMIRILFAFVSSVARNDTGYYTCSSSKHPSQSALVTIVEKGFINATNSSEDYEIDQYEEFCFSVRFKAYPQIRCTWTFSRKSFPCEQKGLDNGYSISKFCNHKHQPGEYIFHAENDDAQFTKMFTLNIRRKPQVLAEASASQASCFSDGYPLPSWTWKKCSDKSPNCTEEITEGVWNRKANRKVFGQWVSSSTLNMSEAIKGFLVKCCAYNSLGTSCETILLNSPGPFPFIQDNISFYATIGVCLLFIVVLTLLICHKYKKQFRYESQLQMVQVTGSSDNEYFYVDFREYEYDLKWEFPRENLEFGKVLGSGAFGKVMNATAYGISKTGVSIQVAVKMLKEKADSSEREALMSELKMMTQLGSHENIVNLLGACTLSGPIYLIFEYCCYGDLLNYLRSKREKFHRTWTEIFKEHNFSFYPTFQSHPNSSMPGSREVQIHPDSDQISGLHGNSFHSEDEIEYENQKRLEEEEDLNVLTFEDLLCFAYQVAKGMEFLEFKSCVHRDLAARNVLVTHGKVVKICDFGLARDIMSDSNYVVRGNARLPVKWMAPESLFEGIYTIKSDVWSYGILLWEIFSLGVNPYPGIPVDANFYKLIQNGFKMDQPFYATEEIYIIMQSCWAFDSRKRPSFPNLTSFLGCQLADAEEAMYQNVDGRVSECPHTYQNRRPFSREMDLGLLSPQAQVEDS
Experimental: (§1) (A) Schematic process of P5 conjugation technology via disulfite bond reduction and Staudinger induced Michael addition. Final ADC consists of monoclonal antibody (20D9 or IgG1 antibody) coupled to monomethyl-auristatin F toxin. Figure was created with BioRender.com. (B-E,G) Assessment of cytotoxicity of ADCs in different Ba/F3 cell lines. Viability was determined after 72 h treatment with different concentrations by trypan blue exclusion count and compared to untreated control. Mean±s.d. of n=3 biological replicates. […] Calculation based on data from FIGS. 2E and 2G calculated by GraphPad Prism. Unpaired, two-tailed Student's t-test; *p<0.05. Each dot represents a replicate, horizontal line indicates mean.
(§2) AML cells were treated once (d0) and viability was determined after 96h using Resazurin solution (50 µM final concentration, 4 h incubation) (R12204, Thermo Fisher Scientific). For Ba/F3 cell assays, cells were treated once (d0) and viable cells were counted after 72 h on Vi-Cell Cell Viability Analyzer (Beckman Coulter, Krefeld, Germany). Calculation of IC50 values were performed using GraphPad Prism version 6.07 (GraphPad Software, La Jolla, CA, USA).

[2] = test system: FLT3 cell surface expression in MOLM-13 cells; test: FLT3 cell surface expression in MOLM-13 after kinase inhibitors, flow cytometry; assay type: cell-based, human; settings: 6, 24, 48 and 72 h incubation
Experimental: Cells were analyzed in flow cytometry after treatment. Dotted line represents MFI ratio of untreated cells. Mean±s.d. of n=2 is depicted. […] Grey triangles indicate increasing drug concentrations. […] Mean±standard deviation is depicted.

[3] = test system: CD34 positive healthy bone marrow (BM) cells; test: Viability of healthy CD34+ bone marrow cells, Annexin V/PI, 4 days; settings: 1000 ng/ml
Description: (C) Percentage of living cells measured with Annexin V/PI staining and normalized to PBS.

MOLM-13 xenograft = MOLM-13 xenograft in NSG mice, bioluminescence imaging; assay type: in vivo; settings: 3 mg/kg; Q1W×2
[4] = test system: Ba/F3 cells expressing both FLT3 and CD64; test: Cytotoxicity in Ba/F3-CD64-FLT3, 72 h; assay type: cell-based, human
Experimental: as §1, §2

[5] = test system: Ba/F3-pMIY-CD64 expressing cells; test: Cytotoxicity in Ba/F3-pMIY-CD64, 72 h; assay type: cell-based, human
Experimental: as §1, §2

[6] = test system: CD34 positive healthy bone marrow (BM) cells; test: Differentiation assessment of healthy CD34+ cells; settings: 1 μg/ml
Description: (§3) (D) Differentiation assessment after staining to differentiation markers. CMP: common myeloid GMP: progenitors; granulocyte-monocyte progenitors; MEP: megakaryocyte/erythroid progenitors; MLP: multilymphoid progenitors; MPP: multipotent progenitors; hematopoietic stem cells (HSC). (E) Assessment of clonogenic capacity of healthy CD34+ BM cells. […] After 14 days, colonies were counted. GEMM: granulocyte, erythrocyte, macrophage, megakaryocyte. GM: granulocyte, macrophage. M: macrophage. G: granulocyte. E: erythrocyte. BFU-E: burst-forming unit erythrocyte. CFU: colony forming unit. 2way ANOVA; *p<0.05; Mean±s.d. of n=5.

healthy CD34+ BM cells = settings: 1 μg/ml
Description: as §3

MOLM-13 cells = test: Cytotoxicity in MOLM-13, 96 h resazurin; assay type: cell-based, human
Description: (A) Correlation of MFI of CD64 cell surface expression and MFI of FLT3 cell surface expression of myeloid human cell lines measure in flow cytometry. Expression data presented in Supplementary FIGS. 4A and B. Black line indicates simple linear regression with error interval. r=Pearson correlation coefficient; r^2=Coefficient of determination; p=p value from two tailed test with confidence interval of 95%. MFI=mean fluorescence intensity. (B,C,E,F) Assessment of cytotoxicity of ADCs in different human cell lines. Viability was determined after 96h treatment with different concentrations of ADCs by resazurin fluorescence and normalized to untreated control. Dashed line indicates 100 ng/ml drug concentration. Mean±s.d. of n=3 biological replicates. […] Black line indicates simple linear regression with error interval. (E) Treatment of FLT3 positive human cell lines with IgG1-ADC.

Molecule: CC[C@H](C)[C@@H]([C@@H](CC(=O)N1CCC[C@H]1[C@H](OC)[C@@H](C)C(=O)N[C@@H](Cc1ccccc1)C(=O)O)OC)N(C)C(=O)[C@@H](NC(=O)[C@@H](NC)C(C)C)C(C)C [MMAF, monomethyl auristatin F] (H-[NMeV]V[Dil][Dolaproine]F-OH)
- Cytotoxicity of controls [1]: no difference in cytotoxicity

Molecule: CNC(=O)c1cc(Oc2ccc(NC(=O)Nc3ccc(Cl)c(C(F)(F)F)c3)cc2)ccn1 [Sorafenib]
- FLT3 cell surface expression [2]: increase of FLT3 cell surface expression

Molecule: IgG1-ADC: MMAF conjugated to the IgG1 based antibody palivizumab; CD64 but no FLT3 binding
- Cytotoxicity of controls [1]: no cytotoxicity
- Cell viability of CD34+ cells [3]: significantly decreased cell viability
- Anti tumor effect, native and deglycosylated ADCs (MOLM-13 xenograft): reduced compared to native 20D9-ADC
- IC50, Ba/F3 expressing both FLT3 and CD64 [4]: 78.3 ng/mL
- IC50, Ba/F3-pMIY-CD64 [5]: 31.8 ng/ml
- Differentiation: cell populations of CD34+ cells [6]: significantly decreased MLPs, CMPs, and GMPs but to a lower extent compared to the 20D9 ADC
- Clonogenic capacity (CFU) (healthy CD34+ BM cells): significantly reduced granulocytic, monocytic and granulocytic-macrophagic colony formation

Molecule: deglycosylated IgG1-ADC: IgG1-ADC with N-linked glycans removed
- Activity on MOLM-13 cells (MOLM-13 cells): no activity
- Anti tumor effect, native and deglycosylated ADCs (MOLM-13 xenograft): only a minimal effect compared to PBS control mice
